As usually defined, the IC50 is the concentration at which inhibition is half-maximal. The term Kd denotes the constant that tells how readily two partners part at equilibrium. Low values mean a tighter complex, high ones a looser complex.

Like-named read-outs stand apart in the source and are kept apart here.

From article PMC11852993, “Discovery of small molecules against porcine reproductive and respiratory syndrome virus replication by targeting NendoU activity” (Journal of Virology, 2024) come the findings set out here.

Test [1] concerns the target T1, VR-NSP11 (PRRSV VR2332, UniProt Q9WJB2).
T1 construct: gene rep; mature NSP11 cut from replicase polyprotein 1ab (ORF1b part); N-terminal 6xHN tag (pET6xHN-N), expressed in E. coli BL21(DE3), TALON purified
Briefly: FRET NendoU assay (6-FAM/BHQ-1 RNA R23.[…]). In kind it is biochemical.

The target in test [2] is T1, VR-NSP11. The test is described as follows: microscale thermophoresis. It counts as binding. An excerpt:
microscale thermophoresis on VR-NSP11 | The MST analysis confirmed a direct interaction between VR-NSP11 and both compounds

T1 sequence (Q9WJB2 3585-3807): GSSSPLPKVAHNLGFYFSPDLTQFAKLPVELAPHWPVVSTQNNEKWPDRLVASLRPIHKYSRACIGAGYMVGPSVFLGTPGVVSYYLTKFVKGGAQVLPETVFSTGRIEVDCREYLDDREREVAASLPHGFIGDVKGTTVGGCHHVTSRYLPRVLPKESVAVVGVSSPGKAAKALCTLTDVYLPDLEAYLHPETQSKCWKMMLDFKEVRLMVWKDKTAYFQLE

Take `CCc1c(C)nc(Nc2nc(C)c3ccc(OC)cc3n2)nc1O` [A8-A2]: the half-inhibitory concentration (IC50) in test [1] (read-out: IC50) turned out to be 24.6 µM. In test [2], this compound displayed a Kd of 23 µM. Consider `COc1ccc2c(C)nc(Nc3nc(C)c(C)c(=O)[nH]3)nc2c1` [Madrasin], for which the IC50 entry in test [1] (fluorescence at 2 h, 1 µM R23.1, HEPES pH 7.5, 50 mM KCl, 1 mM DTT, 25 °C, 1.2 µM enzyme) is “these IC50 values are higher than those of C5 and Madrasin”.
